Data reported in US20050282818A1, “Ubiquitin ligase inhibitors” (Rigel Pharmaceuticals, Inc., priority 2004, published 2005).
Like-named read-outs stand apart in the source and are kept apart here.

Tests used:
A549 cells = assay: Cell proliferation PAD assay, A549; format: cell-based; conditions: Homo sapiens, 48 hours
Procedure: (§1) Cell lines used are available from American Type Culture Collection (ATCC), for example, cell cultures containing A549 (ATCC# CCL-185), HeLa (ATCC# CCL-2), HCT116 ATTC# CCL-247), and H1299 (ATCC# CRL-5803) cells were maintained in T175 flasks following the ATCC recommended media and handling procedures. […] A 20,000 cells/ml solution was made for plating. Cells were plated in black Packard 96 well plates by placing 100 μl per well (2,000 cells per well). […] The definitions of the cell types used are as follows: A549 is lung carcinoma; HI 299 is non-small cell lung carcinoma; HI 155 is non-small cell lung carcinoma; AsPC-1 is pancreatic adenocarcinoma; Caov-3 is ovarian adenocarcinoma; COLO 205 is colorectal adenocarcinoma; DLD-1 colorectal adenocarcinoma; HCT116 is colorectal carcinoma; DU 145 is prostate carcinoma; ES-2 is ovarian clear cell carcinoma; H460 is large cell lung carcinoma; HELA is cervical adenocarcinoma; MIA PaCa-2 is pancreatice carcinoma; OVCAR-3 is ovarian adenocarcinoma; OVCAR8 is ovarian carcinoma; PC3 is prostate adenocarcinoma; SK-OV-3 is ovarian adenocarcinoma; SU86.86 is pancreatic carcinoma; TOV-21G is avarian clear cell carcinoma; U2OS is bone osteosarcoma; is ASPC-I is pancreatic adenocarcinoma; BXPC-3 is pabcreatic adenocarcinoma; HL60 is promyeloblast promyelocytic leukemia; K562 is bone marrow chronic myelogenous leukemia; L1210 is mouse lymphocytic leukemia; MOLT3 is T lymphoblast acute lymphoblastic leukemia; MOLT4 is T lymphoblast acute lymphoblastic leukemia; SW620 is colorectal adenocarcinoma; THP-1 is monocyte acute monocytic leukemia; U937 is histiocytic lymphoma; and UACC-257 is melanoma.
(§2) Compounds and additional media were added 24 hours after cell plating. […] All compound testing was done in duplicate using 6.3 fold dilutions starting with 10 mM. […] Taxol and at least one additional control were run on all plates. Three microliters of the compound master plate were added to deep well blocks containing 750 μl of RPMI media. One hundred microliters were transferred from the compound/media deep well blocks to the plated cells resulting in a 500 fold dilution of the compounds. Cells were grown at 37° C., 5% CO2 for 48 hours.
(§3) Cells to be analyzed by photography were fixed and stained. One hundred microliters of media were removed and 100 μl of 9.3% formamide was added to each well. Plates were left on the benchtop for 45 minutes. A staining solution containing 1.55 μl of 1 mg/ml DAPI added to 18.75 ml PBS was warmed for 15 minutes at 37° C. The cells were aspirated prior to washing with 100 μl of PBS. Seventy microliters of PBS were aspirated and 170 μl of the DAPI solution were added to each well of fixed cells. Plates were left at room temperature for one hour then aspirated and washed twice with 100 μl of PBS. The stained cells were left at 4° C. for a minimum of 16 hours before photographic analysis with Array Scan II (Cellomics). Analysis of the photographic images to determine numbers of live cells (proliferation), apoptotic cells and dead cells, were according to the methods described in U.S. Utility patent application Ser. No. 10/652,440, which incorporated herein in its entirety.

TRAF6/Uev1A/Ubc13 = target: T1, TRAF6/Uev1A/Ubc13 (Homo sapiens, UniProt Q9Y4K3); assay: TRAF6/Uev1A/Ubc13 plate-based ubiquitin ligase assay; format: biochemical
T1 sequence (Q9Y4K3 1-522): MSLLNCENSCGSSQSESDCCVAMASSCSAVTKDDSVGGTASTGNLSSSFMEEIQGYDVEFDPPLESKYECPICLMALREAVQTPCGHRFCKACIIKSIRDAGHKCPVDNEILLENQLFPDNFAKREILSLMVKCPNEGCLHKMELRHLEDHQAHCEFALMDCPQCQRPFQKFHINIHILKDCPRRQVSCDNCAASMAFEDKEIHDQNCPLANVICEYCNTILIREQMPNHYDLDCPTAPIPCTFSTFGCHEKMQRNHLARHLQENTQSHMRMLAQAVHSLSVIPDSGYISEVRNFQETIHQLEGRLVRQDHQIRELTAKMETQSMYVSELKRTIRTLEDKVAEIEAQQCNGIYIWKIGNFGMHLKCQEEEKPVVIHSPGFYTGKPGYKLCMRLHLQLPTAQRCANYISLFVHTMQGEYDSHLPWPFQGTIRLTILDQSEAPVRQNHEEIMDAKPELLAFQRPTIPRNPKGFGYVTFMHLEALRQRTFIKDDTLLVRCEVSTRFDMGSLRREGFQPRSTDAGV
Procedure: For the assays described below, the TRAF6/Uev1A/UBC13 assay is the biochemical plate-based assay of TRAF6 ligase activity using Ubc13 as the E2 enzyme. The gel-based assay is the biochemical solution-based TRAF6 ligase assay (by SDS-PAGE and Western blot) to confirm the plate-based ELISA assay. The APC assay is an assay which is another E3 ligase (APC2/APC11) biochemical assay.
A 96-well Ni-plate was blocked with 100 μl of 1% casein in PBS for 1 hour at room temperature. The plates were then washed three times with 200 μl of 1×PBS and 80 μl of a reaction buffer was added per well which contained 50 ng of Flag-ubiquitin, 50 ng of His-ubiquitin, 62.5 mM Tris pH 7.5, 6.25 mM MgCl2, 1.0 mM DTT, and 2 μM ATP. To each well was added 10 μl of a solution of the compound in DMSO. The reaction was started by adding 10 μl of a solution consisting of 10 ng human E1, 25 ng each of Uev1a and Ubc13, and 100 ng TRAF6 in the reaction buffer. The plates were shaken for 10 minutes and incubate at room temperature for 1 hour. After the incubation, the plates were washed three times with 200 μl 1×PBS in 0.05% Tween and 100 μl of an antibody mix consisting of anti-Flag (1:30,000 dilution; Sigma F-3165) and anti-Mouse IgG-HRP (1/150,000 dilution; Jackson Immunoresearch #115-035-146) in 1×PBS with 0.25% BSA. The plates were then incubated for another 1 hour at room temperature, and after incubation the plate was washed three times with 200 μl 1×PBS with 0.05% Tween. The amount of ubiquitin was measured by adding 100 μl of Lumino substrate (1:5 dilution) and reading the luminescence with a fluorimeter.
Table 2 below illustrates the inhibitory activity of the compounds of the invention determined by the TRAF6/Uev1A/Ubc13 assay as well as in the ICAM, APC and the ROC1/CUL1 Ubiquitin Ligase Assay (SCF Assay). The IC50 values were determined using a various concentrations of the compounds.

H1299 cells = assay: Cell proliferation PAD assay, H1299; format: cell-based; conditions: Homo sapiens, NCI-H1299, 3pt, 48 hours, read-out: H1299 3pt
Procedure: as §1, §2, §3

COC(=O)c1ccc(NS(=O)(=O)c2ccc(Cl)c3nonc23)cc1 [compound 8, Methyl 4-{[(7-chloro-2,1,3-benzoxadiazol-4-yl)sulfonyl]amino}benzoate]
IC50 (A549 cells; 3pt, read-out: A549 3pt): ≥ 20 µM
IC50 (TRAF6/Uev1A/Ubc13): ≥ 20 µM

O=S(=O)(Nc1ccc(F)c(Cl)c1)c1cccc2nonc12 [compound 14, N-(3-chloro-4-fluorophenyl)-2,1,3-benzoxadiazole-4-sulfonamide]
IC50 (A549 cells; 3pt, read-out: A549 3pt): ≥ 20 µM
IC50 (H1299 cells): ≥ 20 µM

O=S(=O)(Nc1c(F)cccc1F)c1cccc2nonc12 [compound 15, N-(2,6-difluorophenyl)-2,1,3-benzoxadiazole-4-sulfonamide]
IC50 (A549 cells; 3pt, read-out: A549 3pt): ≥ 20 µM
IC50 (H1299 cells): 1 to 20 µM

O=S(=O)(Nc1c(F)cc(F)cc1F)c1cccc2nonc12 [compound 16, N-(2,4,6-trifluorophenyl)-2,1,3-benzoxadiazole-4-sulfonamide]
IC50 (A549 cells; 3pt, read-out: A549 3pt): ≥ 20 µM
IC50 (H1299 cells): ≥ 20 µM

Cc1cc(NS(=O)(=O)c2cccc3nonc23)ccc1I [compound 18, N-(4-iodo-3-methylphenyl)-2,1,3-benzoxadiazole-4-sulfonamide]
IC50 (A549 cells; 3pt, read-out: A549 3pt): ≥ 20 µM
IC50 (H1299 cells): ≥ 20 µM

Cc1cc(F)ccc1NS(=O)(=O)c1cccc2nonc12 [compound 19, N-(4-fluoro-2-methylphenyl)-2,1,3-benzoxadiazole-4-sulfonamide]
IC50 (A549 cells; 3pt, read-out: A549 3pt): ≥ 20 µM
IC50 (H1299 cells): ≥ 20 µM

Cc1ccc(C)c(NS(=O)(=O)c2cccc3nonc23)c1 [compound 21, N-(2,5-dimethylphenyl)-2,1,3-benzoxadiazole-4-sulfonamide]
IC50 (A549 cells; 3pt, read-out: A549 3pt): ≥ 20 µM
IC50 (H1299 cells): 1 to 20 µM

O=S(=O)(Nc1cccc(F)c1)c1cccc2nonc12 [compound 22, N-(3-fluorophenyl)-2,1,3-benzoxadiazole-4-sulfonamide]
IC50 (A549 cells; 3pt, read-out: A549 3pt): ≥ 20 µM
IC50 (H1299 cells): ≥ 20 µM

O=S(=O)(Nc1ccc(F)c(F)c1)c1cccc2nonc12 [compound 23, N-(3,4-difluorophenyl)-2,1,3-benzoxadiazole-4-sulfonamide]
IC50 (A549 cells; 3pt, read-out: A549 3pt): ≥ 20 µM
IC50 (H1299 cells): ≥ 20 µM

Cc1cc2cc(NS(=O)(=O)c3cccc4nonc34)ccc2[nH]1 [compound 24, N-(2-methyl-1H-indol-5-yl)-2,1,3-benzoxadiazole-4-sulfonamide]
IC50 (A549 cells; 3pt, read-out: A549 3pt): 1 to 20 µM
IC50 (H1299 cells): 1 to 20 µM

O=S(=O)(Nc1cc(F)ccc1F)c1cccc2nonc12 [compound 27, N-(2,5-difluorophenyl)-2,1,3-benzoxadiazole-4-sulfonamide]
IC50 (A549 cells; 3pt, read-out: A549 3pt): ≥ 20 µM
IC50 (H1299 cells): ≥ 20 µM

O=S(=O)(Nc1cccc(Cl)c1)c1cccc2nonc12 [compound 43, N-(3-chlorophenyl)-2,1,3-benzoxadiazole-4-sulfonamide]
IC50 (A549 cells; 3pt, read-out: A549 3pt): 1 to 20 µM
IC50 (H1299 cells): ≥ 20 µM

O=S(=O)(NCc1ccccn1)c1cccc2nonc12 [compound 49, N-(pyridin-2-ylmethyl)-2,1,3-benzoxadiazole-4-sulfonamide]
IC50 (A549 cells; 3pt, read-out: A549 3pt): ≥ 20 µM
IC50 (H1299 cells): ≥ 20 µM

COCCNS(=O)(=O)c1cccc2nonc12 [compound 50, N-(2-methoxyethyl)-2,1,3-benzoxadiazole-4-sulfonamide]
IC50 (A549 cells; 3pt, read-out: A549 3pt): ≥ 20 µM
IC50 (H1299 cells): ≥ 20 µM

COc1ccc(NS(=O)(=O)c2cccc3nonc23)cc1 [compound 51, N-(4-methoxyphenyl)-2,1,3-benzoxadiazole-4-sulfonamide]
IC50 (A549 cells; 3pt, read-out: A549 3pt): ≥ 20 µM
IC50 (H1299 cells): ≥ 20 µM

O=S(=O)(Nc1cc(Cl)cc(Cl)c1)c1cccc2nonc12 [compound 52, N-(3,5-dichlorophenyl)-2,1,3-benzoxadiazole-4-sulfonamide]
IC50 (A549 cells; 3pt, read-out: A549 3pt): ≥ 20 µM
IC50 (H1299 cells): ≥ 20 µM

O=S(=O)(NCC1CCCCC1)c1cccc2nonc12 [compound 53, N-(cyclohexylmethyl)-2,1,3-benzoxadiazole-4-sulfonamide]
IC50 (A549 cells; 3pt, read-out: A549 3pt): ≥ 20 µM
IC50 (H1299 cells): ≥ 20 µM

O=C1OC2(CCN(c3ccc([N+](=O)[O-])c4nonc34)CC2)c2ccccc21 [compound 302, 1′-(7-nitro-2,1,3-benzoxadiazol-4-yl)-3H-spiro[2-benzofuran-1,4′-piperidin]-3-one]
IC50 (TRAF6/Uev1A/Ubc13): 1 to 20 µM

CCN(CC)c1cc(N2CCC3(CC2)OC(=O)c2ccccc23)c2nonc2c1[N+](=O)[O-] [compound 303, 1′-[6-(diethylamino)-7-nitro-2,1,3-benzoxadiazol-4-yl]-3H-spiro[2-benzofuran-1,4′-piperidin]-3-one]
IC50 (TRAF6/Uev1A/Ubc13): ≥ 20 µM

O=C1OC2(CCN(c3cc(N4CCCCC4)c([N+](=O)[O-])c4nonc34)CC2)c2ccccc21 [compound 304, 1′-(7-nitro-6-piperidin-1-yl-2,1,3-benzoxadiazol-4-yl)-3H-spiro[2-benzofuran-1,4′-piperidin]-3-one]
IC50 (TRAF6/Uev1A/Ubc13): ≥ 20 µM

FC(F)(F)c1cccc(-c2cccc3nonc23)c1 [compound 305, 4-[3-(Trifluoromethyl)phenyl]-2,1,3-benzoxadiazole]
IC50 (TRAF6/Uev1A/Ubc13): ≥ 20 µM

Cc1cccc(-c2cccc3nonc23)c1 [compound 306, 4-(3-Methylphenyl)-2,1,3-benzoxadiazole]
IC50 (A549 cells; 6pt, read-out: A549 6pt): ≥ 20 µM
IC50 (TRAF6/Uev1A/Ubc13): ≥ 20 µM

COC(=O)c1ccc(NS(=O)(=O)c2ccc(Sc3ccc4ccccc4n3)c3nonc23)cc1 [compound 316, Methyl 4-({[7-(quinolin-2-ylthio)-2,1,3-benzoxadiazol-4-yl]sulfonyl}amino)benzoate]
IC50 (TRAF6/Uev1A/Ubc13): ≥ 20 µM

COc1ccccc1-c1cc(Cl)c2nonc2c1 [compound 330, 4-Chloro-6-(2-methoxyphenyl)-2,1,3-benzoxadiazole]
IC50 (A549 cells; 6pt, read-out: A549 6pt): ≥ 20 µM

O=[N+]([O-])c1cccc(-c2cc(Cl)c3nonc3c2)c1 [compound 331, 4-Chloro-6-(3-nitrophenyl)-2,1,3-benzoxadiazole]
IC50 (A549 cells; 6pt, read-out: A549 6pt): ≥ 20 µM
